According to article PMC10817945, “Design of a novel analogue peptide with potent antibiofilm activities against Staphylococcus aureus based upon a sapecin B-derived peptide” (Scientific Reports, 2024):
In brackets after ≈: the same amount, converted by molar mass. Like-named read-outs stand apart in the source and are kept apart here. Non-standard residues stand in square brackets, D forms with d. Residues, ends and D or L forms follow the SMILES beside them.

Key:
Type in all cases: cell-based, Staphylococcus aureus
S. aureus isolates = experiment: microbe, parasite or virus in culture
Experimental: Minimum inhibitory concentrations (MIC) of KLK, mKLK, and vancomycin were determined using microdilution broth assay according to clinical and laboratory standards institute (CLSI) guidelines with some modifications. Briefly, overnight cultures were diluted in Muller-Hinton broth (MHB; Merck, Germany) to achieve a final density of 5 × 10^5 CFU/ml. A volume of 100 μl of bacterial suspension was added to wells of sterile 96-well plates containing 100 μl of two-fold peptide dilutions, ranging from 0.25 to 256 µg/ml. Vancomycin was used as a positive control in this assay. […] MBC was determined by removing samples from wells with no visible growth, serially diluting, and plating on Mueller Hinton (MH) agar plates for CFU counting.

[1] = system: preformed S. aureus biofilms
Experimental: The eradicative activity of KLK and mKLK peptides against preformed S. aureus biofilms was evaluated by determining MBEC, as previously described. The 24-h biofilms developed in TSB in a 96-well plate were washed three times with 200 μl PBS solution. Concentrations of the peptides ranging from 2 to 1024 µg/ml were prepared. A volume of 100 μl of each concentration was added to a corresponding well, and plates were incubated for 18–20 h at 37 °C. Then, wells were washed with sterile PBS solution, and 100 μl of PBS solution was added. The wells were thoroughly scraped with a sterile pipette tip, vortexed and sonicated to release the biofilm cells from the well surface. Subsequently, 10 μl of well contents were plated on MHA. Colonies were counted after 20 h at 37 °C. The MBEC was defined as the lowest concentration of peptide that inhibited bacterial regrowth.

S. aureus strains [2] = experiment: Inhibition of bacterial surface attachment (crystal violet)
Experimental: (§1) To investigate the inhibitory effect of KLK and mKLK peptides on bacterial surface attachment and biofilm formation, the bacterial suspension in TSB with a concentration of 10^7 CFU/ml was prepared from overnight culture. An aliquot of 100 μl of the bacterial suspension was added to wells of 96-well plates containing 100 μl of the peptides solution with concentrations of 1×, 1/2× and 1/4× MIC, resulting in the final peptides concentrations of 1/2×, 1/4× and 1/8× MIC. To investigate the inhibitory effect of the peptides on surface attachment the incubation was performed at 37 °C for 2 h and to evaluate their inhibitory activity on biofilm formation the incubation was performed at 37 °C for 24 h. The wells containing only TSB medium were used as negative controls. After incubation, the contents of the wells were removed and washed three times with PBS and the wells were stained with 200 μl of 0.1% crystal violet for 20 min. The plates were washed again and excess dye was removed. A volume of 200 μl of 95% ethanol was added to each well for 20 min and absorbance was measured at 570 nm by a microplate reader.

S. aureus strains [3] = system: S. aureus strains
Experimental: as §1

SMILES: CC(C)C[C@@H](NC(=O)[C@H](N)Cc1c[nH]c2ccccc12)C(=O)N[C@H](Cc1c[nH]c2ccccc12)C(=O)N[C@H](C)C(=O)N[C@H](CC(C)C)C(=O)N[C@H](CC(C)C)C(=O)N[C@H](CCCCN)C(=O)N[C@H](CC(C)C)C(=O)N[C@H](CC(C)C)C(=O)N[C@H](CCCCN)C(=O)N[C@H](CC(C)C)C(=O)N[C@H](CCCCN)C(N)=O [mKLK] (H-[dW][dL][dW][dA][dL][dL][dK][dL][dL][dK][dL][dK]-NH2; N-terminus assumed)
- MIC (S. aureus isolates; ATCC25923): 4 µg/mL (≈ 2.62 µM)
- MIC (S. aureus isolates; MRSA clinical isolates, read-out: MIC): 8 µg/mL (≈ 5.25 µM)
- MIC (S. aureus isolates; MRSA-1): 8 µg/mL (≈ 5.25 µM)
- MIC (S. aureus isolates; MRSA-2): 8 µg/mL (≈ 5.25 µM)
- MIC (S. aureus isolates; MRSA-3): 8 µg/mL (≈ 5.25 µM)
- MIC (S. aureus isolates; MSSA-1): 4 µg/mL (≈ 2.62 µM)
- MIC (S. aureus isolates; MSSA-2): 4 µg/mL (≈ 2.62 µM)
- MIC (S. aureus isolates; three MRSA isolates): 8 µg/mL (≈ 5.25 µM)
- MIC (S. aureus isolates; two MSSA isolates): 4 µg/mL (≈ 2.62 µM)
- MBEC ([1]; ATCC25923): 64 µg/mL
- MBEC ([1]; MRSA-1): 64 µg/mL
- MBEC ([1]; MRSA-2): 128 µg/mL
- MBEC ([1]; MRSA-3): 64 µg/mL
- MBEC ([1]; MSSA-1): 32 µg/mL
- MBEC ([1]; MSSA-2): 32 µg/mL
- MBEC, range over isolates ([1]; preformed biofilms): 32 to 128 µg/mL
- crystal violet absorbance at 570 nm, bacterial attachment, Mean±SD (S. aureus strains [2]; ATCC25923, 1/4MIC, control 2.136±0.01): 1.789±0.01
- crystal violet absorbance at 570 nm, bacterial attachment, Mean±SD (S. aureus strains [2]; ATCC25923, 1/8MIC, control 2.136±0.01): 1.952±0.07
- crystal violet absorbance at 570 nm, bacterial attachment, Mean±SD (S. aureus strains [2]; MRSA-1, 1/2MIC, control 1.861±0.02): 1.361±0.03
- crystal violet absorbance at 570 nm, bacterial attachment, Mean±SD (S. aureus strains [2]; MRSA-1, 1/4MIC, control 1.861±0.02): 1.599±0.08
- crystal violet absorbance at 570 nm, bacterial attachment, Mean±SD (S. aureus strains [2]; MRSA-1, 1/8MIC, control 1.861±0.02): 1.723±0.02
- crystal violet absorbance at 570 nm, bacterial attachment, Mean±SD (S. aureus strains [2]; MRSA-2, 1/2MIC, control 2.311±0.005): 1.496±0.01
- crystal violet absorbance at 570 nm, bacterial attachment, Mean±SD (S. aureus strains [2]; MRSA-2, 1/4MIC, control 2.311±0.005): 1.811±0.19
- crystal violet absorbance at 570 nm, bacterial attachment, Mean±SD (S. aureus strains [2]; MRSA-2, 1/8MIC, control 2.311±0.005): 1.906±0.13
- crystal violet absorbance at 570 nm, bacterial attachment, Mean±SD (S. aureus strains [2]; MRSA-3, 1/2MIC, control 1.491±0.06): 0.944±0.07
- crystal violet absorbance at 570 nm, bacterial attachment, Mean±SD (S. aureus strains [2]; MRSA-3, 1/4MIC, control 1.491±0.06): 1.078±0.07
- crystal violet absorbance at 570 nm, bacterial attachment, Mean±SD (S. aureus strains [2]; MRSA-3, 1/8MIC, control 1.491±0.06): 1.119±0.12
- crystal violet absorbance at 570 nm, bacterial attachment, Mean±SD (S. aureus strains [2]; MSSA-1, 1/2MIC, control 2.107±0.08): 1.229±0.07
- crystal violet absorbance at 570 nm, bacterial attachment, Mean±SD (S. aureus strains [2]; MSSA-1, 1/4MIC, control 2.107±0.08): 1.419±0.01
- crystal violet absorbance at 570 nm, bacterial attachment, Mean±SD (S. aureus strains [2]; MSSA-1, 1/8MIC, control 2.107±0.08): 1.592±0.36
- crystal violet absorbance at 570 nm, bacterial attachment, Mean±SD (S. aureus strains [2]; MSSA-2, 1/2MIC, control 2.061±0.01): 1.199±0.09
- crystal violet absorbance at 570 nm, bacterial attachment, Mean±SD (S. aureus strains [2]; MSSA-2, 1/8MIC, control 2.061±0.01): 1.576±0.46
- crystal violet absorbance at 570 nm, biofilm formation, Mean±SD (S. aureus strains [3]; ATCC25923, 1/2MIC, control 2.302±0.006): 0.207±0.02
- crystal violet absorbance at 570 nm, biofilm formation, Mean±SD (S. aureus strains [3]; ATCC25923, 1/4MIC, control 2.302±0.006): 0.257±0.05
- crystal violet absorbance at 570 nm, biofilm formation, Mean±SD (S. aureus strains [3]; ATCC25923, 1/8MIC, control 2.302±0.006): 0.678±0.01
- crystal violet absorbance at 570 nm, biofilm formation, Mean±SD (S. aureus strains [3]; MRSA-1, 1/2MIC, control 2.115±0.01): 0.489±0.007
- crystal violet absorbance at 570 nm, biofilm formation, Mean±SD (S. aureus strains [3]; MRSA-1, 1/4MIC, control 2.115±0.01): 0.572±0.01
- crystal violet absorbance at 570 nm, biofilm formation, Mean±SD (S. aureus strains [3]; MRSA-1, 1/8MIC, control 2.115±0.01): 0.936±0.07
